This is an account of results in patent publication US12264173B2 (GILEAD SCIENCES, INC., priority 2020, dated 2025).

Read-outs that look alike come from different tables or passages of the source. Bounds are passed on as bounds.

What all share (assay type): cell-based
For one test, the system named is RSV strain A2. Description: microbe, parasite or virus in culture. Particulars: human respiratory syncytial virus, read-out: RSV HEp-2 EC50. As for the experimental part:
Antiviral activity against RSV is determined using an infectious cytopathic cell protection assay in HEp-2 cells. In this assay, compounds inhibiting viral infection and/or replication produce a cytoprotective effect against the virus-induced cell killing that can be quantified using a cell viability reagent. The techniques used here are novel adaptations of methods described in published literature (Chapman et al., Antimicrob Agents Chemother. 2007, 51(9):3346-53.).
HEp-2 cells are obtained from ATCC (Manassas, VI) and maintained in MEM media supplemented with 10% fetal bovine serum and penicillin/streptomycin. Cells are passaged twice a week and kept at subconfluent stage. Commercial stock of RSV strain A2 (Advanced Biotechnologies, Columbia, MD) is titered before compound testing to determine the appropriate dilution of the virus stock that generates desirable cytopathic effect in HEp-2 cells.
For antiviral tests, HEp-2 cells are grown in large cell culture flasks to near confluency but not fully so. The compounds to be tested are prediluted in DMSO in 384-well compound dilution plates, either in an 8 or 40 sample per plate standardized dose response format. 3-fold serial dilution increments of each test compound are prepared in the plates and test samples are transferred via acoustic transfer apparatus (Echo, Labcyte) at 100 nL per well into cell culture assay 384-well plates. Each compound dilution is transferred in single or quadruplicate samples into dry assay plates, which are stored until assay is ready to go. The positive and negative controls are laid out in opposite on ends of the plate in vertical blocks (1 column).
Subsequently, an infectious mixture is prepared using an appropriate dilution of virus stock previously determined by titration with cells at a density of 50,000/mL and 20 µL/well is added to test plates w/compounds via automation (uFlow, Biotek). Each plate includes negative and positive controls (16 replicates each) to create 0% and 100% virus inhibition standards, respectively. Following the infection with RSV, testing plates are incubated for 4 days in a 37° C. cell culture incubator. After the incubation, a cell viability reagent, Cell TiterGlo (Promega, Madison, WI) is added to the assay plates, which are incubated briefly, and a luminescent readout is measured (Envision, Perkin Elmer) in all the assay plates. The RSV-induced cytopathic effect, percentage inhibition, is determined from the levels of remaining cell viability. […] Various potent anti-RSV tool compounds are used as positive controls for antiviral activity.

Another test has as its system HRV16. Description: HRV16 HeLa EC50 (cytopathic effect in H1-HeLa cells). Particulars: read-out: HRV16 HeLa EC50. The procedure: H1-HeLa cells, cultured in complete DMEM medium containing 10% heat-inactivated FBS and 1% Penicillin/Streptomycin, were seeded in 96 well plates at 3000 cells/well one day prior to compound dosing and infection. The antiviral activity of each compound was measured in triplicate. Compounds were added directly to the cell cultures in serial 3-fold dilutions using the HP300 digital dispenser (Hewlett Packard, Palo Alto, CA) immediately prior to infection. The plates were transferred to BSL-2 containment and the appropriate dilution of virus stock, previously determined by titration and prepared in cell culture media, was added to test plates containing cells and serially diluted compounds. Each plate included 6 wells of infected untreated cells and 6 wells of uninfected cells that served as 0% and 100% virus inhibition control, respectively. Following the infection, test plates were incubated for 96 h in a tissue culture incubator set to 33° C./5% CO2. Following incubation, the H1-HeLa cells were removed from incubation and allowed to equilibrate to 25° C. Cell viability was determined by removing 100 μL of culture medium and adding 100 μL of Cell-Titer Glo viability reagent. The mixtures were incubated on a shaker for 10 minutes at 25° C., and the luminescence signal was quantified on an Envision luminescence plate reader.
A general note: Protection from cytopathic effect is a common read-out in antiviral testing.

The subject of a further test is RSV A2. Description: RSV NHBE EC50 (RSV A2 antiviral assay in NHBE cells). Particulars: human respiratory syncytial virus, NHBE, read-out: RSV NHBE EC50. As for the experimental part: Normal human bronchial epithelial (NHBE) cells were purchased from Lonza (Walkersville, MD, Cat #CC-2540) and cultured in Bronchial Epithelial Growth Media (BEGM) (Lonza, Walkersville, MD, Cat #CC-3170). The cells were passaged 1-2 times per week to maintain <80% confluency. The NHBE cells were discarded after 6 passages in culture.
To conduct the RSV A2 antiviral assay, NHBE cells were plated in 96-well plates at a density of 7,500 cells per well in BEGM and allowed to attach overnight at 37° C. Following attachment, 100 μL of cell culture media was removed and 3-fold serially diluted compound was added using a Hewlett-Packard D300 Digital Dispenser. The final concentration of DMSO was normalized to 0.05%. Following compound addition, the NHBE cells were infected by the addition of 100 μL of RSV A2 at a titer of 1×10^4.5 tissue culture infectious doses/mL in BEGM and then incubated at 37° C. for 4 days. The NHBE cells were then allowed to equilibrate to 25° C. and cell viability was determined by removing 100 μL of culture medium and adding 100 μL of Cell-Titer Glo viability reagent. The mixtures were incubated for 10 minutes at 25° C., and the luminescence signal was quantified on an Envision luminescence plate reader.

Setting [1] is: HEp-2, 96 h, Table 3, HEp-2 cells, RSV A2, 4 days.
The mark [2] stands for this setting: 96 h, Table 3, H1-HeLa cells, 96 h.
The mark [3] stands for this setting: 96 h, Table 3, NHBE cells, RSV A2, 4 days.

As for `CC(C)C(=O)O[C@H]1[C@H](c2ccc3c(N)ncnn23)O[C@](C#N)(COP(=O)(N[C@@H](C)C(=O)O[C@@H]2CCN(C)C2)Oc2ccccc2)[C@H]1OC(=O)C(C)C` (stereo partly drawn) [Example 232, (2R,3S,4S,5S)-5-(4-aminopyrrolo[2,1-f][1,2,4]triazin-7-yl)-2-cyano-2-((((((S)-1-(((R)-1-methylpyrrolidin-3-yl)oxy)-1-oxopropan-2-yl)amino)(phenoxy)phosphoryl)oxy)methyl)tetrahydrofuran-3,4-diyl bis(2-methylpropanoate)], the EC50 was found to be 95 nM in the test on RSV strain A2 (setting [1]), 880 nM in the test with HRV16 (setting [2]) and 53 nM in the test on RSV A2 (setting [3]).
Turning to `CCC(CC)COC(=O)[C@H](C)NP(=O)(O)OC[C@@]1(C#N)O[C@@H](c2ccc3c(N)ncnn23)[C@H](OC(=O)C(C)C)[C@@H]1OC(=O)C(C)C` [Example 239, ((2R,3S,4S,5S)-5-(4-aminopyrrolo[2,1-f][1,2,4]triazin-7-yl)-2-cyano-3,4-bis(isobutyryloxy)tetrahydrofuran-2-yl)methyl ((S)-1-(2-ethylbutoxy)-1-oxopropan-2-yl)phosphoramidate], the EC50 in the test with RSV strain A2 (setting [1]) is greater than 9830 nM; with HRV16 (setting [2]) it was greater than 50000 nM; with RSV A2 (setting [3]) it was 2260 nM.
Turning to `COCCCOC(=O)[C@H](C)NP(=O)(OC[C@@]1(C#N)O[C@@H](c2ccc3c(N)ncnn23)[C@H](OC(=O)C(C)C)[C@@H]1OC(=O)C(C)C)Oc1ccccc1` (stereo partly drawn) [Example 222, (2R,3S,4S,5S)-5-(4-Aminopyrrolo[2,1-f][1,2,4]triazin-7-yl)-2-cyano-2-((((((S)-1-(3-methoxypropoxy)-1-oxopropan-2-yl)amino)(phenoxy)phosphoryl)oxy)methyl) tetrahydrofuran-3,4-diyl bis(2-methylpropanoate)], the EC50 with RSV strain A2 (setting [1]) worked out at 27 nM; with HRV16 (setting [2]), 146 nM; in the test with RSV A2 (setting [3]), 25 nM.
On to `CC(C)C(=O)O[C@H]1[C@H](c2ccc3c(N)ncnn23)O[C@](C#N)(COP(=O)(N[C@@H](C)C(=O)O[C@H]2CCN(C)C2)Oc2ccccc2)[C@H]1OC(=O)C(C)C` (stereo partly drawn) [Example 228, (2R,3S,4S,5S)-5-(4-aminopyrrolo[2,1-f][1,2,4]triazin-7-yl)-2-cyano-2-((((((S)-1-(((S)-1-methylpyrrolidin-3-yl)oxy)-1-oxopropan-2-yl)amino)(phenoxy)phosphoryl)oxy)methyl)tetrahydrofuran-3,4-diyl bis(2-methylpropanoate)], for which the EC50 is 84 nM with RSV strain A2 (setting [1]); 84 nM in the test with RSV strain A2 (HEp-2, Table 5 comparative activity, 2',3'-OH vs -OC(O)iPr); 956 nM in the test on HRV16 (setting [2]); 956 nM in the test with HRV16 (HeLa, Table 5 comparative activity, 2',3'-OH vs -OC(O)iPr); 59 nM in the test on RSV A2 (setting [3]); 59 nM in the test with RSV A2 (Table 5 comparative activity, 2',3'-OH vs -OC(O)iPr).
As for `COCCC(=O)O[C@H]1[C@H](c2ccc3c(N)ncnn23)O[C@](C#N)(CO[P@@](=O)(N[C@@H](C)C(=O)OC)Oc2ccccc2)[C@H]1OC(=O)CCOC` [Example 231, (2R,3S,4S,5S)-5-(4-aminopyrrolo[2,1-f][1,2,4]triazin-7-yl)-2-cyano-2-((((S)-(((S)-1-methoxy-1-oxopropan-2-yl)amino)(phenoxy)phosphoryl)oxy)methyl) tetrahydrofuran-3,4-diyl bis(3-methoxypropanoate)], the EC50 turned out to be 124 nM in the test with RSV strain A2 (setting [1]), 1730 nM in the test on HRV16 (setting [2]) and 75 nM with RSV A2 (setting [3]).
As for `CC(C)C(=O)O[C@H]1[C@H](c2ccc3c(N)ncnn23)O[C@](C#N)(COP(=O)(N[C@@H](C)C(=O)OCc2ccccc2)Oc2ccccc2)[C@H]1OC(=O)C(C)C` (stereo partly drawn) [Example 236, (2R,3S,4S,5S)-5-(4-aminopyrrolo[2,1-f][1,2,4]triazin-7-yl)-2-((((((S)-1-(benzyloxy)-1-oxopropan-2-yl)amino)(phenoxy)phosphoryl)oxy)methyl)-2-cyanotetrahydrofuran-3,4-diyl bis(2-methylpropanoate)], the EC50 in the test on RSV strain A2 (setting [1]) turned out to be 49 nM; with HRV16 (setting [2]), 136 nM; in the test on RSV A2 (setting [3]), 24 nM.

As usually defined, the EC50 is the concentration at which the effect is half-maximal.
